These results are taken from paper PMC6943612, “Investigation of Anti-Inflammatory Potential of N-Arylcinnamamide Derivatives” (Molecules, 2019).

The test system of experiment [1] is IκBα. Put plainly: Signaling pathway analysis (Western blot): IκBα level. The format is cell-based. The settings on record: 2 µM, 30 min after LPS 1 µg/mL. On the procedure: (§1) The level of IĸB and the amount of activated (phosphorylated) mitogen-activated protein (MAP) kinase p38, ERK1/2, and JNK was determined on the THP1-Blue™ NF-κB, in a way similar to that described previously. Briefly, cells cultivated in serum-free medium were pretreated with the tested compounds (8, 17, cinnamic acid, or prednisone) at concentration 2 µM. One hour later, 1 µg/mL of LPS was added, and after 30 min the cells were collected into ice-cold Mammalian Cell Lysis Buffer (Abcam, Cambridge, UK) with phosphatase inhibitors PhosSTOP (Roche, Mannheim, Germany). Cell lysates were centrifuged 3000 g/5 min/4 °C and supernatants were mixed with 5× Laemmli reducing buffer [250 mM Tris-HCl pH 6.8, 10% (w/v) SDS, 30% (v/v) glycerol, 5% (v/v) β-mercaptolethanol, 0.04% (w/v) bromphenol blue], and incubated at 95 °C for 5 min. […] The membranes were incubated at 4 °C for 16 h with primary anti-IĸB-α (Cell Signaling; product No. 4814; dilution 1:1,000), anti-p44/42 MAPK (ERK1/2) (Cell Signaling; product No. 9102; dilution 1:1,000), anti-phospho-p44/42 MAPK (ERK1/2) (Cell Signaling; product No. 9101; dilution 1:1,000), anti-JNK1/2/3 (Abcam; product No. ab179461; dilution 1:1,000), anti-phosho-JNK1/2/3 (Abcam; product No. ab76572; dilution 1:5,000), anti-p38 MAPK (Cell Signaling; product No. 8690; dilution 1:1,000), anti-phospho-p38 MAPK (Cell Signaling; product No. 9210; dilution 1:1,000), and anti-β-actin (Santa Cruz, Aachen, Germany; product No. sc-47778; dilution 1:5000) antibodies. […] The amount of bound secondary antibody was determined using WesternSure® PREMIUM Chemiluminescent Substrate (LI-COR, Lincoln, NE, USA). Chemiluminescence was detected using a LI-COR C-DiGit chemiluminescence imaging system (LI-COR).
(§2) Figure 6 Effect of N-arylcinnamamide derivatives on the activation of MAPKs. […] Cells were collected 30 min after LPS stimulation and selected proteins were detected by Western blot and immunodetection.

Experiment [2] concerns THP1-Blue™ NF-κB cells. Kind of experiment: Cell viability determination (WST-1), 24 h. It counts as cell-based. Conditions: WST-1, 24 h incubation, serum-free medium, three independent measurements; read-out: IC50 ± SEM, viability of THP1-Blue™ NF-κB cell line. On the procedure: The cell viability was determined as was described previously. […] The final concentration of DMSO was 0.1% (v/v) in each well. Measurements were taken after 24 h incubation with the tested substances. Viability was measured by the Cell Proliferation Reagent kit WST-1 (Roche Diagnostics, Basel, Switzerland) according to the manufacturer’s manual. […] The IC50 values were calculated by four-parameter logistic (4PL) analysis from obtained viability curves.
A general note: Tetrazolium assays rely on reduction of a dye to a coloured formazan, in cell work by metabolically active cells.

In experiment [3] the test system is transcription factor NF-κB. Kind of experiment: Determination of LPS-induced NF-κB activity (Quanti-Blue, SEAP reporter). The format is cell-based. How it is done:
The activity of NF-κB transcription factors was evaluated on THP1-Blue™ NF-κB cells as described previously. […] After 24 h of incubation, 20 µL of cultivation medium was mixed with 200 µL of Quanti-Blue™ medium (Invivogen) and incubated according to the manufacturer’s instructions at 37 °C for 30–40 min. The activity of NF-κB was determined as secretion of embryonic alkaline phosphatase spectrophotometrically in a Tecan Infinite M200 (Tecan, Männedorf Switzerland) at 650 nm and compared with an untreated control (100%).
Figure 3 Effect of the tested compounds on the activity of transcription factor NF-κB. THP1-Blue™ NF-κB cells were pretreated by compounds (2 µM; or 0.5 µM for 10, 11, and 13) or prednisone (PDS; 2 µM) dissolved in DMSO at indicated concentrations for 1 h. Then, lipopolysaccharide (LPS) 1 µg/mL was added to trigger the NF-κB activation. The activity of NF-κB was measured 24 h after LPS stimulation using QuantiBlue™ assay. Graph represents mean ± SEM. Red dotted line show value of DMSO-only treated group, azur dotted line CA treated group, and blue dotted line PDS treated group. ** indicates statistical significance (p < 0.01) to DMSO group; *** indicates statistical significance (p < 0.001) to DMSO group **** indicates statistical significance (p < 0.0001) to DMSO group.

For experiment [4], the system named is NF-κB p65. Kind of experiment: Immunocytochemical analysis of NF-κB nuclear migration. The format is cell-based. The settings on record: 2 µM, 1 h after LPS 1 µg/mL, PMA-differentiated macrophages. On the procedure: To differentiate THP1-Blue™ NF-κB monocytes into macrophages, the cells were stimulated with phorbol myristate acetate (PMA) at the final concentration of 50 ng/mL, as was described previously. Cells were seeded into 8-well cell culture glass slide (SPL, Korea) at the concentration of 500,000 cells/mL, 150,000 cells per well. The compound 17 was added at the final concentration of 2 µM, and 1 h later, the cells were activated by LPS (1 µg/mL). After 1h, the culture slide was washed with PBS and fixed with 4% formaldehyde. The cells were permeabilized by 0.1% Triton X-100 (v/v; Merck) and blocked with 3% bovine serum albumin (BSA, Merck) dissolved in PBS. The primary antibody NF-κB p65 (Abcam, Cambridge, UK; product No. ab16502) at concentration 2.5 µg/mL was used for overnight incubation at 4 °C. After that, secondary anti-rabbit antibody labeled with Alexa Fluor® 488 (Cell Signaling; product No. 4412; dilution 1:1000) was added for 1 h in dark, and the nuclei were stained using 0,5 µg/mL DAPI (Merck) for 5 min. The wells were washed three-times between the mentioned steps with PBS. The coverslip was mounted with VectaShield mounting (Vector laboratories, Burlingame, CA, USA) medium and sealed with the nail polish. The nail polish was allowed to dry at 4 °C and the translocation of NF-κB was observed by fluorescence microscopy. […]

The test system of experiment [5] is MAPKs (p38, ERK1/2, JNK). Kind of experiment: Signaling pathway analysis (Western blot): phosphorylated MAPKs. It counts as cell-based. Conditions: 2 µM, 30 min after LPS 1 µg/mL. On the procedure:
as §1, §2
A general note: Immunoblotting shows a protein as a band on a membrane.

Experiment [6] relates to TNF-α. Put plainly: TNF-α secretion by LPS-stimulated PMA-differentiated THP1-Blue™ NF-κB macrophages (ELISA). It counts as cell-based, Human. Conditions: 2 µM, LPS 1 µg/mL, 24 h. On the procedure: Differentiated THP1-Blue™ NF-κB macrophages (see the chapter 3.6) were pre-treated for 1 h with 2 µM solutions of the tested compounds 8, 12, 6, 17, cinnamic acid, and prednisone dissolved in DMSO, or only the vehicle [0.1% (v/v) […] solution]. The inflammatory-like response was triggered by adding 1 μg/mL of LPS from E. coli 0111:B4 (Sigma-Aldrich) to the pre-treated macrophages; the control cells were left without LPS treatment. After 24 h, the supernatants were collected and the concentration of TNF-α was measured using a Human TNF-α ELISA Kit (Diaclone, Besançon, France), according to the manufacturer’s manual.
Figure 7 Effect of N-arylcinnamamide derivatives on the secretion of TNF-α. THP1-Blue™ NF-κB cells were differentiated to macrophages by PMA. Such cells were pretreated by compounds or PDS (2 µM) for 1 h, then LPS (1 µg/mL) was added to trigger the inflammatory signalization. Cultivation medium was collected 24 h after LPS stimulation, and the amount of TNF-α was measured by the ELISA technique. Graph represents mean ± SEM. * indicates statistical significance (p < 0.05) to DMSO group; ** indicates statistical significance (p < 0.01) to DMSO group **** indicates statistical significance (p < 0.0001) to DMSO group.
On the technique in general: In an ELISA, binding on a coated surface is turned into a signal by an enzyme label.

Structures are written as SMILES.

In general, IC50 refers to the concentration at which inhibition is half-maximal. What is called inhibition is the percentage by which the read-out fell short of the control. `O=C(/C=C/c1ccccc1)Nc1cc(C(F)(F)F)ccc1Cl` [Compound 17, (2E)-N-[2-Chloro-5-(trifluoromethyl)phenyl]-3-phenylprop-2-enamide]: the “effect on IκBα levels” value in experiment [1] was “no effect”. Besides, in experiment [2], the IC50 was over 30 µM. For the same compound, the “inhibitory effect on NF-κB activity compared with prednisone (in words)” value in experiment [3] (2 µM, same concentration as prednisone) is “comparable with prednisone”. The compound further gave an inhibition at 2 µM in experiment [3] (concentration of compounds 2 µM, LPS 1 µg/mL, 24 h) of 27.1%. Also, in experiment [4], the “nuclear translocation of NF-κB after LPS stimulation” value is listed as “slightly affected”. Also, the “effect on MAPKs activity” value in experiment [5] is “no effect”. In addition, in experiment [6], the “decrease of the level of TNF-α” value came to 12.4% and the “effect on TNF-α production (in words)” value is “decreased”.
